Source: patent US11986466B2, “Methods of treating solid tumors with CCR2 antagonists” (CHEMOCENTRYX, INC., priority 2018, dated 2024)
“Also recorded” adds a separate entry of the source.

Tests used:
[1] = tested on: pancreatic ductal adenocarcinoma (PDAC); conditions: orally dosed, phase 1b study; cited from earlier work
[2] = tested on: cytokines and biomarkers produced from the TME; assay: Quantitative RT-PCR of cytokines and biomarkers in ear tissues; type: in vivo, C57BL/6 mice
Procedure: FIG. 5A-C. Compound 1 treatment altered the expression of cytokines and biomarkers produced from the TME. Quantitative RT-PCR was performed for the ear tissues collected on day 7. Genes that are involved in cancer inflammation and immunity crosstalk are selectively detected. Comparative expression is performed between the Compound 1 and vehicle treated groups. […] Gene expression values are normalized to endogenous expression of GAPDH (* p<05, ** p<0.01; n=3 mice per group).
FIG. 6. Compound 1 treatment altered the expression of cytokines and biomarkers produced from the TME. Quantitative RT-PCR was performed for the ear tissues collected on day 7. Genes that are involved in immune suppression and anti-inflammation are selectively detected. Comparative expression is performed between the Compound 1 and vehicle treated groups. Gene expression values are normalized to endogenous expression of GAPDH (n=3 mice per group).
Quantitative real-time PCR. RNA (<2 μg per sample) was converted into cDNA with the high-capacity first-strand cDNA Kit (Qiagen). Real-time PCR was performed on a StepOne Plus Real-time PCR system (Applied Biosystem, Carlsbad, CA). QPCR primer pairs were purchased from Integrated DNA technologies (Coralville, Iowa).

MBL2 tumors [3] = assay: Cervical draining lymph node size (lymph node metastasis) in DNFB-MBL2 model; type: in vivo, C57BL/6 mice; conditions: day 15, Compound 1 alone
Procedure: (§1) FIG. 7A-E. CD8 T cells are compulsory in CCR2 antagonist-mediated anti-tumor immunity. (A) Tumor tissues were collected from mice euthanized after two weeks of treatment. Groups are as indicated in the graph. IHC staining with CD8a antibody was performed. The numbers of CD8 positive T cells were counted by taking three random images of HPF (high power field) in each section from all four mice per group. (B) Scheme for neutralizing CD8 T cells along with Compound 1 treatment. Neutralizing anti-CD8 or rat-IgG2a was administrated via intraperitoneal injection one day before MBL2 tumor inoculation followed by a second dose after 7 days. Tumor formation was examined in two weeks after the treatment with Compound 1 or vehicle. (C) Mice treated in experiment (B) were euthanized on day 3 for flow analysis of the cervical draining lymph nodes in order to determine the effect of CD8 depletion (three mice per group). (D) Mice were euthanized on day 15 after the two weeks of Compound 1/vehicle treatment with or without CD8 T cell neutralization. Ear thickness is measured for presenting tumor size. (E) Draining lymph nodes are also measured for the lymph node metastasis (n=4).
Next, we administrated neutralizing CD8 antibodies by IP injection concurrently with the Compound 1 treatment (FIG. 7B). […]

MBL2 tumors [4] = assay: MBL2/DNFB mouse ear skin T cell lymphoma model: tumor growth (ear thickness, ear weight); type: in vivo, C57BL/6 mice
Procedure: Animals and cell lines. Female C57BL/6 mice (6-8 weeks old) were purchased from Charles River (Hollister, CA) and housed in animal facilities at University of California Davis (UCDAVIS), Sacramento, CA All animal experiments were conducted in accordance with the guidelines and approval of the Institutional Animal Care and Usage Committee at UCDAVIS. The MBL2 cell line is an established cell line derived from Moloney MuLV-induced T-cell lymphoma in C57BL/6 mice, in which the gag gene was deleted from the genome in order to lower virus-dependent immunogenicity. MBL2 cells were cultured in DMEM (Invitrogen, Carlsbad, CA) with 10% heat-inactivated FBS.
Establishment of MBL2 tumors in mice. The method of establishing mouse ear skin tumors was previously described, Briefly, PBS-washed MBL2 cells (4×10^5 in 20 μl PBS) were injected into the dermal space under the central dorsal surface of the ears and above the cartilage plane using a 28 g needle. Mice were then topically treated one time with DNFB (1-Fluoro-2, 4-dinitrobenzene, 0.5% in a vehicle consisting of 4:1 (v/v) acetone and olive oil, 10 μl/ear) (Sigma, St. Louis, CA) on dorsal ear skins. Tumor growth was assessed for maximum ear thickness using a digital caliper, or by weight for the whole tumor-bearing ears removed from ear baseline. The endpoint determination is based on the allowed maximal ear tumor size, or local erosion and bleeding, which usually occurred within two weeks after implantation.
Tumor treatment by CCR2 antagonist and/or anti-PD1. Small molecule compounds, Compound 1, either in a high concentration (6 mg/ml) or a low concentration (2 mg/ml), as well as vehicle control were all provided by ChemoCentryx (Mountain View, CA) in a lab-ready formulation. In therapeutic application, oral administration through gavage of Compound 1 or vehicle started on the same day of MBL2 cell inoculation, usually two hours apart. Compound 1 was administrated once a day (60 mg/kg for high dose or 20 mg/kg for low dose) for up to two weeks following tumor implantation. […]

F4/80+ macrophages = assay: IHC staining of ear tissue with anti-F4/80; type: in vivo, C57BL/6 mice; conditions: day 7, 60 mg/kg oral daily
Procedure: (§2) FIG. 4A-D. Enhanced inflammation is associated with CCR2 antagonism by Compound 1 in the tumor microenvironment. (A, B) Ear tissues were collected from mice treated by Compound 1 (60 mg/kg) or vehicle on day 7. Representative images for HE sections and IHC staining with anti-F4/80 were shown for the ear tissues from Compound 1 and vehicle treated group. (C, D) Ears from day 7 were also analyzed by flow cytometry to quantify the numbers of the two major myeloid subpopulations in TME with antibodies for CD11b, F4/80 and Ly6G.
(§3) H&E and Histoimmunochemistry. After mouse ear tumors were surgically removed at the ear base, the ear sample was cut into two parts along the long axis and placed in RNA later for RNA extraction or into 10% formalin for hematoxylin and eosin (H&E) staining or immunohistochemical staining with purified mouse antibodies (anti-CD8 and anti-F4/80 from Biolegend, San Diego, CA).

[5] = Plasma concentration of Compound 1 after daily oral dosing; type: in vivo, mice
Procedure: (§4) (A) Mice were orally dosed for Compound 1 daily at a lower concentration (20 mg/kg per day) or a higher concentration (60 mg/kg per day) for consecutive ten days. Plasma concentration of Compound 1 was detected by chemistry analyst 24 hours after the last dosing. (B) The same groups of mice in panel (A) were recorded for body weight before the first and after the last oral administration (n=4 per group). Statistical analysis is performed by two-way ANOVA in GraphPad PRISM (GraphPad Software, San Diego, CA).
(§5) Compound 1 is an orally-bioavailable CCR2 antagonist. […] For the experimental treatment regimen, we administered Compound 1 daily via oral gavage, starting on the same day of tumor implantation (FIG. 1a). […] Thus, Compound 1 blocked tumor growth in an inflammation and macrophages dependent model of T cell lymphoma.

[6] = Body weight and tolerability after daily oral dosing; type: in vivo, mice; conditions: 20 or 60 mg/kg daily oral
Procedure: as §4, §5

[7] = H&E histology and appearance of tumor-bearing ears; type: in vivo, C57BL/6 mice; conditions: day 7, 60 mg/kg
Procedure: as §2, §3

[8] = tested on: neutrophil-like cells (CD11b- and Ly6G-positive cells); assay: Flow cytometry of neutrophils / neutrophil-like cells in ear tumor microenvironment; type: in vivo, C57BL/6 mice
Source text: (§6) FIG. 3A-D. Compound 1 specifically targets macrophages, but not neutrophils. (A, B) Macrophages, defined by the CD11b+/F4/80+ cell populations in flow analysis, were presented in either percentage or absolute numbers in ear TME after only two daily doses of Compound 1 (dosages are indicated in the figure, * p<05, ** p<01 vs vehicle control). (C, D) Single cell suspension from the same tissues as in (A) were stained with antibodies for CD11b, F4/80, CCR2, Ly6G, and Ly6C. Cells gated on CD11b were further analyzed to differentiate the subpopulations. Solid circles indicate the cells which are targeted by Compound 1. Dotted circles circles indicate the cells which are not blocked by Compound 1.
as §2
(§7) Flow cytometry for mouse ear tissues, lymph nodes, and spleens. Anti-mouse CD45 (clone 30-F11), CD11b (M1/70), F4/80 (BM8), Ly6G (1A8), Ly6C (HK1.4), IFN-γ (XMG1.2) and CD8 (5H10-1) Abs were purchased from BioLegend (San Diego, CA). Ears or tumor tissues were digested to obtain skin cell suspensions as described, Lymph nodes or spleens were directly minced and filtered through cell strainers with 100 μm micron pores (Thermo Fisher Scientific, Waltham, MA). Red blood cells in the spleen samples were removed by RBC lysis buffer (BioLegend). Intracellular staining was done after incubating cells for 4 h with brefeldin A and PMA/ionomycin as described. Flow cytometry was performed using an Acuri C6 or LSR II (BD Biosciences, San Jose, CA) in conjunction with FlowJo analysis software (Tree Star, San Carlos, CA).

CD8+ T cells = assay: IHC staining of tumor tissue with CD8a antibody; type: in vivo, C57BL/6 mice; conditions: two weeks of treatment, dose-dependent, vs untreated and vehicle
Procedure: as §1
H&E and Histoimmunochemistry. […]

[9] = tested on: CD11b+/F4/80+ macrophages; assay: Flow cytometry of macrophages in ear tumor microenvironment; type: in vivo, C57BL/6 mice
Source text: as §6, §7

[10] = day 7, vs vehicle, normalized to GAPDH
[11] = day 15, 20 or 60 mg/kg oral daily, vs untreated or vehicle
[12] = ear tumors, treated two days after tumor implantation, 20 or 60 mg/kg oral

O=C(NCC(=O)N1CC[C@H](N[C@H]2CC[C@@](O)(c3ccc(-c4ncccn4)cn3)CC2)C1)c1cccc(C(F)(F)F)c1 [PF-04136309]
TAM infiltration [1]: reduction in TAM infiltration
anti-tumor immune response [1]: endogenous anti-tumor immune response

C[C@H]1CN([C@@H]2CC[C@@](C(=O)N3COc4c(cc(C(F)(F)F)cc4C(F)(F)F)C3)(C3CC3)OC2)CC[C@@H]1c1cccc(C(=O)O)c1 [Compound 1]
IL-10 expression in ears ([2]; day 7, vs controls): similarly expressed
TGF-beta expression in ears ([2]; day 7, vs controls): similarly expressed
CCL2 expression in the TME ([2]; day 7, vs vehicle): Upregulation
CCL7 expression in the TME ([2]; day 7, vs vehicle): Upregulation
CXCL1/2 expression in the TME ([2]; day 7, vs vehicle): noticeably increased
IL-1beta expression in ears ([2]; day 7, vs vehicle): upregulated to variable extents
IL-6 expression in ears ([2]; day 7, vs vehicle): upregulated to variable extents
IL-12 expression in ears ([2]; day 7, vs vehicle): found to increase
IL-17a expression in ears ([2]; day 7, vs vehicle): upregulated to variable extents
S100A8/9 expression in the TME ([2]; day 7, vs vehicle): noticeably increased
granzyme B expression in ears ([2]; day 7, vs vehicle): consistent upregulation
CXCL10 mRNA level in ears [2, 10]: significantly increased
CXCL11 mRNA level in ears [2, 10]: significantly increased
IFN-γ mRNA level in ears [2, 10]: significantly increased
cervical draining lymph node size (MBL2 tumors [3]): reduction of cervical LN size
ear thickness (MBL2 tumors [4]; [11]): significantly reduced
ear weight (MBL2 tumors [4]; [11]): significantly reduced
tumor growth / tumor size (MBL2 tumors [4]; single agent, two weeks of treatment, vs vehicle/control): smaller and sometimes nearly eradicated; also recorded: visible reduction in tumor growth; also recorded: inhibits tumor growth; also recorded: effectively delay the tumor growth, but was unable to eliminate the tumors
macrophages in the TME by IHC anti-F4/80 (F4/80+ macrophages): largely absent
plasma concentration ([5]; 20 or 60 mg/kg daily oral gavage for ten days, 24 hours after last dosing): correlated well to the feeding doses; also recorded: dose-dependently absorptive
oral bioavailability ([5]; oral): orally-bioavailable
tolerability / side effects [6]: well tolerated; also recorded: without side effects
weight changes ([6]; ten days): ≤ 20%
tumor cell necrosis [7]: results in tumor cell necrosis
accumulation of neutrophils in the TME ([8]; after two daily doses): not blocked
relative abundance of neutrophils in the TME ([8]; after two daily doses): increased
numbers of neutrophils / neutrophil-like cells in the TME ([8]; one week (day 7) of treatment, 60 mg/kg oral daily, vs vehicle, 60 mg/kg): significantly larger numbers of neutrophils; also recorded: significant increase
numbers of CD8+ T cells in the tumor/TME (IHC) (CD8+ T cells): significantly larger numbers of CD8+ T cells; also recorded: markedly increased
CD11b+/F4/80+ macrophages, absolute numbers in whole ears [9, 12]: significantly decreased
CD11b+/F4/80+ macrophages, percentage values of live cells [9, 12]: significantly decreased
macrophages in the skin (flow cytometry) ([9]; oral administration for two days after tumor initiation, vehicle 17.7%): 2.78 % of total leukocytes
